Measured values published in ChEMBL document CHEMBL2203051, “Synthesis of new opioid derivatives with a propellane skeleton and their pharmacologies: part 3, novel propellane derivatives with pentacyclic skeletons” (Bioorg Med Chem Lett, 2012).

Tests used:
[1] = species: Mus musculus; experiment: Selectivity ratio of Ki for delta opioid receptor mouse whole brain without cerebellum to Ki for kappa opioid receptor in mouse whole brain without cerebellum
[2] = molecular target: Kappa-type opioid receptor (Mus musculus, UniProt P33534); experiment: Displacement of [3H]U-69,593 from kappa opioid receptor in mouse whole brain without cerebellum
[3] = Selectivity ratio of Ki for mu opioid receptor in […] to Ki for kappa opioid receptor in mouse whole brain without cerebellum
[4] = molecular target: Delta-type opioid receptor (Mus musculus, UniProt P32300); experiment: Displacement of [3H][…] from delta opioid receptor in mouse whole brain without cerebellum
[5] = molecular target: Mu-type opioid receptor (Cavia porcellus, UniProt P97266); experiment: Displacement of [3H]DAMGO from mu opioid receptor in […]
Sequence of Mu-type opioid receptor (P97266 whole entry): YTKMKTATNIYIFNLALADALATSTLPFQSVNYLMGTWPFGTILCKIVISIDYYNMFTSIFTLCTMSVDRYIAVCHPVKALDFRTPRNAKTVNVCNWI

Sequence of Kappa-type opioid receptor (P33534 whole entry): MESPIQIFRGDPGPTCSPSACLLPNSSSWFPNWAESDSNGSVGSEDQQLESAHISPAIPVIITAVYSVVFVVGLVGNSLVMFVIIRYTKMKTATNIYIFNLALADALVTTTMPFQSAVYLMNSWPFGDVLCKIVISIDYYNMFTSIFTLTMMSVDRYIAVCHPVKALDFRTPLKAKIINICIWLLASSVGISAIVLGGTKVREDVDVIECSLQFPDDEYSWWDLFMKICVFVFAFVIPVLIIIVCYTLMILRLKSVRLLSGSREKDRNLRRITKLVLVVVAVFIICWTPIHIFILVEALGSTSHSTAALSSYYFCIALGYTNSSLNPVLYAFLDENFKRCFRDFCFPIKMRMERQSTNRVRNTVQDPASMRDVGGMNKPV
Sequence of Delta-type opioid receptor (P32300 whole entry): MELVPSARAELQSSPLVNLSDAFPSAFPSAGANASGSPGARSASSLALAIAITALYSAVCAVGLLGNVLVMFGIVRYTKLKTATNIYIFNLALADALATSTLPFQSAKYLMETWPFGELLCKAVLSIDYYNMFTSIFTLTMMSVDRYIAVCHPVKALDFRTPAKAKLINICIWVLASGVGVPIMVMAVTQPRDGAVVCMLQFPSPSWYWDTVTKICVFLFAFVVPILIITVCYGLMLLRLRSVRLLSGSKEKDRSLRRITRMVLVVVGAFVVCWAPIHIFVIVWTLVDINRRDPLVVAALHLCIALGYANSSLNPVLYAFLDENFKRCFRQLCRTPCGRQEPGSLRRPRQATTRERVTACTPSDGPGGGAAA

SMILES	Ratio Ki [1]	Ki [2] [nM]	Ratio Ki [3]	Ki [4] [nM]	Ki [5] [nM]
O=C1CC23CCN(CC4CC4)C4C[C@H](O)C1CC42Cc1ccc(O)cc13 (stereo not given in full)	8.72	16.7	4.22	146	70.7
O=C1CC2N(CC3CC3)CCC34CC(=O)C1CC23Cc1ccc(O)cc14 (stereo not given)	7.26	56.5	3.31	410	187
O=C1CC23CCN(CC4CC4)C4C[C@@H](O)C1CC42Cc1ccc(O)cc13 (stereo not given in full)	8.9	7.63	1.72	67.9	13.1
O=C1CC23CCN(CC4CC4)C4C=CC1CC42Cc1ccc(O)cc13 (stereo not given)	27.2	1.92	9.17	52.2	17.6
O=C1CC23CCN(CC4CC4)C4CCC1CC42Cc1ccc(O)cc13 (stereo not given)	52	0.84	3.82	43.6	3.21
